Test results from patent US7507732B2, “Cyclopentapyridine and tetrahydroquinoline derivatives” (Pfizer Inc., priority 2005, dated 2009).
Like-named read-outs stand apart in the source and are kept apart here.

Key:
human 5HT2b receptor = human 5HT2b receptor (Homo sapiens, UniProt P41595); assay: 5HT2b Binding Procedure (competition binding with 3H-LSD, CHO cell membranes)
Description: Affinity of compounds for the human 5HT2b receptor is determined by competition binding using membranes prepared from Chinese hamster ovary (CHO) cells containing the tetracycline operator (Flp-In Trex system—Invitrogen) that were engineered to express the human 5HT2b receptor. […] The supernatant was removed and discarded, while the pellet was resuspended in homogenization buffer, then centrifuged for 20 minutes at 25,000×g at 4° C. The supernatant was discarded while the pellet (containing membranes) was resuspended in homogenization buffer, and the membranes were aliquoted and frozen at −80° C. The binding assay was set up in 96-well plates, which contained 2 μl of test compound (in 100% DMSO) then 100 μl of ^3H-LSD (final concentration=3 nM) diluted in assay buffer (50 mM Tris pH 7.4, 4 mM CaCl2, 0.1% Ascorbic Acid), followed by the addition of 100 μl of membranes (approximately 15 μg membrane protein, diluted in assay buffer) from 5HT2b -expressing cells. 1 μM mianserin was used to calculate non-specific binding. The assay plates were incubated at 37° C. for 60 minutes, then the assay was terminated by filtration onto 96-well UniFilter™ plates (with GF/C filters—from PerkinElmer™) which were pre-soaked in 0.3% PEI. The filterplates were washed 2× with cold wash buffer (50 mM Tris, pH 7.4), then dried, scintillation fluid added and radioactivity determined in a Wallac Microbeta™ plate scintillation counter (PerkinElmer™). Concentration-response curves of the % inhibition of specific binding by test compounds versus the test compound concentration, was used to determine the IC50 for each compound and the Ki value calculated based on the Cheng-Prusoff equation (Ki=IC50/(1+(L/Kd)), where L is the concentration of the radioligand used in the binding assay and the Kd is based on previous saturation studies with the radioligand.

rat 5HT2a receptor = target: T1, rat 5HT2a receptor (Rattus norvegicus, UniProt P14842); assay: 5HT2a Binding Procedure (competition binding using 125I-DOI, membranes of transfected NIH 3T3 mouse cells)
T1 construct: expressed in transfected cells; host or cells: NIH 3T3 mouse cells
T1 sequence (P14842 whole entry): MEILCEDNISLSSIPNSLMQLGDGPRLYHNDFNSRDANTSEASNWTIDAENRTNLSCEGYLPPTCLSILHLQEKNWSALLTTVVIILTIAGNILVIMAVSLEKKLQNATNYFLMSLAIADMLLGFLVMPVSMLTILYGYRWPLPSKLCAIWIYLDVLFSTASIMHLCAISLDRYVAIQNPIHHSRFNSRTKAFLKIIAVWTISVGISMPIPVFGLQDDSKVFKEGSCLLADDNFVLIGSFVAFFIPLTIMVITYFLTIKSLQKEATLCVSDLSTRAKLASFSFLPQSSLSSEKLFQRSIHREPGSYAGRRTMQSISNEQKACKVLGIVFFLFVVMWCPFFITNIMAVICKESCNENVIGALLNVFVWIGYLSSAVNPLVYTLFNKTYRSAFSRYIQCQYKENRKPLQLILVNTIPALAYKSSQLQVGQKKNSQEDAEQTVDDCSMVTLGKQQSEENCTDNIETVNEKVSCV
Description: Affinity of compounds at the serotonin 5HT2a binding site is determined by competition binding in NIH 3T3 mouse cells transfected with the rat 5HT2a receptor using 125I-DOI.

human 5HT2c receptor = target: T2, human 5HT2c receptor (Homo sapiens, UniProt P28335); assay: 5HT2c Binding Procedure (competition binding against 3H-5HT, membranes of transfected Swiss 3T3 mouse cells)
T2 construct: expressed in transfected cells; host or cells: Swiss 3T3 mouse cells (ATCC)
T2 sequence (P28335 33-458): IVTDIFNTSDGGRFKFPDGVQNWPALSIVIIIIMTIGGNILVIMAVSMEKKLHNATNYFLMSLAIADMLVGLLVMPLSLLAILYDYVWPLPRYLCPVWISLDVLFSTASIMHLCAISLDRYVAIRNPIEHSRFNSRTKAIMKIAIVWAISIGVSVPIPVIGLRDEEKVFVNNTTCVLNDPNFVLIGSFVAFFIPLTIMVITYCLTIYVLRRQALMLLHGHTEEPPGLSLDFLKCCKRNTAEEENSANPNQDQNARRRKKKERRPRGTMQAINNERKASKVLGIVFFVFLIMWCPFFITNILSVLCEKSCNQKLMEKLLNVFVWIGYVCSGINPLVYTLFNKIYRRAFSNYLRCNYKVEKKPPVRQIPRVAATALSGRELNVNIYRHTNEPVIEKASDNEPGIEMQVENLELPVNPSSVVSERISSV
Description: Affinity of compounds at the serotonin 5HT2c binding site is determined by competition binding in Swiss 3T3 mouse cells (available from the American Type Culture Collection (ATCC), Manassas, Va.) transfected with the human 5HT2c receptor against ^3H-5HT.

[1] = cited from earlier work
[2] = receptor binding, 5HT2a, read-out: 2aKi
[3] = receptor binding, 5HT2c, read-out: 2cKi

Chain of human 5HT2b receptor (P41595 whole entry): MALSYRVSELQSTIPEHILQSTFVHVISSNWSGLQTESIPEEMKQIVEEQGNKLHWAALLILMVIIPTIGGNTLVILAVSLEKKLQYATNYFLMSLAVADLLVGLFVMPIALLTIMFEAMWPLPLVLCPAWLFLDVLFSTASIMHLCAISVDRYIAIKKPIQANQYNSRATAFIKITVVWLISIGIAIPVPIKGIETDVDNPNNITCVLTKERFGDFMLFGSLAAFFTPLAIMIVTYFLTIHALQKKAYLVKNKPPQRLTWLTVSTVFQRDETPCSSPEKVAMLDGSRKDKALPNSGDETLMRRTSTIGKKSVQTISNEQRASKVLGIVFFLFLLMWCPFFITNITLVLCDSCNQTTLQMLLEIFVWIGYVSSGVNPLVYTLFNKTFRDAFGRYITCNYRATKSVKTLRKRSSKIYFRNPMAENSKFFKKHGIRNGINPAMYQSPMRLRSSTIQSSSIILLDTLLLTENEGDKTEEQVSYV

Structure (SMILES) | Ki (human 5HT2b receptor) | Ki (rat 5HT2a receptor) | Ki (human 5HT2c receptor) | Ki (rat 5HT2a receptor; [2]) | Ki (human 5HT2c receptor; [3]) | further results
Fc1ccc(F)c(CO[C@H]2CCc3ccc(N4CCNCC4)nc32)c1 [Example 1A-37, (7S)-7-[(2,5-difluorobenzyl)oxy]-2-piperazin-1-yl-6,7-dihydro-5H-cyclopenta[b]pyridine] | 0.159 µM | 0.025 µM | 0.0266 µM |  |  | 
C[C@@H]1CNCCN1c1ccc2c(n1)[C@@H](OCc1cccc(C#N)c1)CC2 [Example 2A-4, 3-[({(7S)-2-[(2R)-2-methylpiperazin-1-yl]-6,7-dihydro-5H-cyclopenta[b]pyridin-7-yl}oxy)methyl]benzonitrile] | 0.803 µM |  |  | 0.0339 µM | 0.0069 µM | 
Fc1cc2c(c(O[C@H]3CCc4ccc(N5CCNCC5)nc43)c1)CCC2 [Example 3A-76, (7S)-7-[(6-fluoro-2,3-dihydro-1H-inden-4-yl)oxy]-2-piperazin-1-yl-6,7-dihydro-5H-cyclopenta[b]pyridine] | 0.053 µM |  |  | 0.0028 µM | 0.003 µM | 
c1ccc2c(O[C@H]3CCc4ccc(N5CCNCC5)nc43)cncc2c1 [Example 3A-83, 4-{[(7S)-2-piperazin-1-yl-6,7-dihydro-5H-cyclopenta[b]pyridin-7-yl]oxy}isoquinoline] |  | 0.0468 µM | 0.0179 µM |  |  | Ki (human 5HT2b receptor; read-out: 2bKi, receptor binding, 5HT2b): 0.145 µM
C[C@@H]1CNCCN1c1ccc2c(n1)[C@@H](Oc1ccccc1F)CC2 [Example 4A-4] | 0.021 µM |  |  | 0.00414 µM | 0.00511 µM | 
O=C1Cc2cc(CCN3CCN(c4nsc5ccccc45)CC3)c(Cl)cc2N1 [Ziprasidone, 5-[2-[4-(1,2-benzisothiazol-3-yl)piperazin-1-yl]ethyl]-6-chloroindolin-2-one] |  |  |  |  |  | half-life ([1]; in vivo): 6 to 7 h; protein binding ([1]; in vivo): extensive; Oral bioavailability ([1]; taken with food): approximately 60%
